Laboratory results taken from patent US20080194466A1, “(5Z)-5-(6-Quinoxalinylmethylidene)-2-[(2,4,6-Trichlorophenyl)Amino]-1,3-Thiazol-4(5H)-One” (priority 2005, published 2008).
Structures can show the parent of a compound that is named as a salt.

What was measured:
[1] = Oral bioavailability (blood exposure, DNAUC) in rats; assay type: in vivo, male Sprague-Dawley rats; conditions: for Oral DNAUC rats (Sprague-Dawley): sodium salts, oral gavage, dose ~1-4 mg/kg, 50% PEG-400, 10% ethanol, 40% of 40% (w/v) aqueous Encapsin, blood, LC/MS/MS, 0-1440 min
Protocol: The sodium salt of Compound A was fed to male Sprague-Dawley rats by oral gavage in a formulation with 50% PEG-400, 10% ethanol, 40% of 40% (w/v) aqueous Encapsin in water at a dose of between 1 and 4 mg/kg (16 mL of dose solution per kg). Blood (120 microliters) was sampled at the following time intervals: 0, 20, 40, 60, 120, 180, 240, 360, 480, and 1440 min. The concentration of Compound A was quantified by LC/MS/Ms analysis of an aliquot (25 microliters blood+25 microliters water) of these samples and the overall blood exposure reported as the Dose-Normalised Area Under the Curve (DNAUC) from a concentration versus time plot and expressed in the units microgram hours per milliliter per […] per kilogram (ug.h/mL/mg/kg). The oral exposures of the sodium salt of Compound B and the sodium salt of Compound C were quantified by the same method.

hYAK3 kinase enzyme = biological target: T1, hYAK3 kinase enzyme (Homo sapiens, UniProt O43781); experiment: in vitro hYAK3 kinase enzyme inhibition; assay type: biochemical; conditions: in vitro assays; compared with Compound B and Compound C
T1 sequence (O43781 1-588): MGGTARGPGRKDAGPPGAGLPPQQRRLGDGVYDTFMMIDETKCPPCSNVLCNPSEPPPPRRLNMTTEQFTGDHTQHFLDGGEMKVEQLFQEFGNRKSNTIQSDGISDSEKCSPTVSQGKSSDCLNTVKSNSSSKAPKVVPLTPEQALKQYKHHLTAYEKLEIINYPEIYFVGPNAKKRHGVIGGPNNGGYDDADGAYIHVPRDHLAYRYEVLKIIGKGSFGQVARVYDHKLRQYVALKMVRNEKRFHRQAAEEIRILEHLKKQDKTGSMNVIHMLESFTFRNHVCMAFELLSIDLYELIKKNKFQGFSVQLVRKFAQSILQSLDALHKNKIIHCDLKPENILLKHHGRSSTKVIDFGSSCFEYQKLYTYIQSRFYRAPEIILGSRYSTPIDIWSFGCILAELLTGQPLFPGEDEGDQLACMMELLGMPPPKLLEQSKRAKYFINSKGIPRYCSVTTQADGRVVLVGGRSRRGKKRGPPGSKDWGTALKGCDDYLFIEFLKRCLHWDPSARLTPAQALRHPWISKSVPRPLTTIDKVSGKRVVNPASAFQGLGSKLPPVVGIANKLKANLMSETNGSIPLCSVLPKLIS
Protocol: Compound A is tested for its ability to inhibit the hYAK3 kinase enzyme by known methods such as those described in International Application No. PCT/US2003/037658.

Row | SMILES | bioavailability in vivo ([1]; compared with the most closely related compounds of PCT/US2003/037658) | hYAK3 kinase enzyme inhibition activity (hYAK3 kinase enzyme) | Oral DNAUC rats (Sprague-Dawley) [1] [ug · h/mL/min/kg]
1 | O=C1NC(=Nc2c(Cl)cc(Cl)cc2Cl)S/C1=C\c1ccc2nccnc2c1 [Compound A, (5Z)-5-(6-quinoxalinylmethylidene)-2-[(2,4,6-trichlorophenyl)amino]-1,3-thiazol-4(5H)-one] | significantly greater bioavailability in vivo | activity similar to Compound B (described herein) and Compound C | –
2 | O=C1N=C(Nc2c(Cl)cc(Cl)cc2Cl)S/C1=C\c1ccc2nccnc2c1.[Na] [Compound A•Na, (5Z)-5-(6-quinoxalinylmethylidene)-2-[(2,4,6-trichlorophenyl)amino]-1,3-thiazol-4(5H)-one sodium salt] | – | – | 26.11
3 | O=C1NC(=Nc2c(Cl)cccc2Cl)S/C1=C\c1ccc2ncccc2c1 [Compound B•Na, 2-(2,6-dichloro-phenylimino)-5-(quinolin-6-ylmethylene)-thiazolidin-4-one sodium salt, reference compound] | – | – | 0.49
4 | O=C1NC(=Nc2ccccc2Cl)S/C1=C\c1ccc2nccnc2c1 [C•Na, 2-(2-chloro-phenylimino)-5-(quinoxalin-6-ylmethylene)-thiazolidin-4-one sodium salt, reference compound] | – | – | 0.34
